Key:
[1] = system: cocaine self-administered mice; assay: Cocaine self-administration (seeking and taking behavior); type: in vivo, mouse; conditions: i.p., 30 min before 2 h FR1 session
Description: (a) Surgery procedure: WT mice (10-12 weeks, both genders) were implanted with permanently indwelling catheters (Plastics one) into the right jugular vein under a combination of ketamine hydrochloride ([…], i. p.) and xylazine ([…], i.p.) anesthesia. The catheter is tied to the vein with surgical silk and is passed subcutaneously to the back of the mouse where the catheter is affixed to a small plastic pedestal (26 G, Plastics One Company). After the surgery, the catheters were flushed daily with heparin (30 IU/mi) to avoid clotting. Mice were allowed at least 7 days of recovery in their home before the start of the experiments.
(b) The establishment of cocaine self-administered mice: Mice were individually put into sound-mitigation cubicles (Coulbourne Instrument) for the training of self-administered cocaine (1.0 mg/kg/infusion). […] A timeout period of 15 seconds followed each drug injection. All responses were recorded automatically using a computer interface and Graphic State Notation 4 software (Coulbourne Instrument). Mice were trained to self-administer cocaine during one daily session under a fixed ratio 1 (FR1) schedule. […]
(c) The effects of Compound 8 on cocaine-mediated seeking and taking behavior. […] The numbers of active nose-poke and cocaine infusions were recorded. […]

[2] = target: T1, PDE4B (Homo sapiens, UniProt Q07343); assay: In vitro PDE4 inhibition study, PDE4B (BPS Bioscience); type: binding
T1 construct: purchased BPS Bioscience, San Diego
T1 sequence (Q07343 whole entry): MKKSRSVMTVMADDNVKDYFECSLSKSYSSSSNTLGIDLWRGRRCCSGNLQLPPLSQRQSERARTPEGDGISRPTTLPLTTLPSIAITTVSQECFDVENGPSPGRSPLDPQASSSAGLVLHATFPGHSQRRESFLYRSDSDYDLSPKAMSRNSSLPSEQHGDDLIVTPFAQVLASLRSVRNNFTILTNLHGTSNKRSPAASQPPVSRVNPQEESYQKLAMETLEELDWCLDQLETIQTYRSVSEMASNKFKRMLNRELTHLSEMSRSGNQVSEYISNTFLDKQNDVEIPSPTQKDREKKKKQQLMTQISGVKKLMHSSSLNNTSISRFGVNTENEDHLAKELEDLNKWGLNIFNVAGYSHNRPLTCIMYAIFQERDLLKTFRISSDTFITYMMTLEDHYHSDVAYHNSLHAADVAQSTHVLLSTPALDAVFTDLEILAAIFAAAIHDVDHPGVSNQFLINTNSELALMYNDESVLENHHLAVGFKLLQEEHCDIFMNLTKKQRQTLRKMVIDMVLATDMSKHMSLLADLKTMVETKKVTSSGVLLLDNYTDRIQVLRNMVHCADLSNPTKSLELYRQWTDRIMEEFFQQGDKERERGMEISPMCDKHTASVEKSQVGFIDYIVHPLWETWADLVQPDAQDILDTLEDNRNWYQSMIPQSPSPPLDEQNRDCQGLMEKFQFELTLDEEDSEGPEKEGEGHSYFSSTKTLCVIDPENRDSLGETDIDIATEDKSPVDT
Description: The IC50 values of Compound 8 on PDE4 isoforms were determined by BPS Bioscience, San Diego. In brief, coat proteins (PDE4 isoforms) were added into the plate in a volume of 50 μl (2-5 ng/μl) at 4° C. overnight. The next day, Compound 8 was added to the coated plate with varying concentrations followed by addition of the corresponding biotinylated binding partner. The reaction was incubated for 2 hours at room temperature. Binding assays were performed in duplicate at each concentration and the plates were read by using Synergy 2 BioTek plate reader. The luminescence data were analyzed using the Graphpad Prism. […] Data for a reference compounds or antibodies are included as a control for inhibition. “ND” indicates the compound was not tested.

[3] = system: WT mice; assay: Locomotor analysis (cocaine-induced hyperlocomotion, open field); type: in vivo, mouse; conditions: for Locomotor activity of compound alone: Compound 8 + saline
Description: Locomotor analysis: WT mice (both gender, n=6-8) were divided into four groups receiving various treatments: (1) vehicle+saline; (2) vehicle+cocaine; (3) Compound 8+saline; and (4) Compound 8+cocaine. Cocaine was administered at 20 mg/kg (i.p.) and Compound 8 was used at two different doses 5 or 10 mg/kg (i.p.). Compound 8 was firstly injected into the mice and 30 min later followed with cocaine administration. To investigate the effects of Compound 8 on acute locomotor response, immediately following cocaine injection, mice were put into the open field apparatus (Truescan, Coulbourn instrument) to detect locomotor activity for 45 min. The TruScan photobeam activity system consists of a clear arena with infrared sensors located on a ring 3 cm above floor level. There are 16 beams spaced 1 inch apart on the sensor ring that are used to detect movements by mice. […] To investigate the effects of Compound 8 on locomotor sensitization, mice were repeatedly injected with Compound 8 and cocaine for 7 consecutive days and the locomotor responses were recorded every other day.

[4] = target: T2, PDE4B1 (Homo sapiens, UniProt Q07343); assay: Cell-based PDE4B assay (HEK293, PDE4B1 vector, CRE luciferase reporter, forskolin); conditions: versus apremilast
T2 construct: expressed in transfected cells; host or cells: HEK293
T2 sequence (Q07343 whole entry): as above
Description: Cells were incubated at 37° C. and 5% CO2 overnight. […] Cell based assays were performed in triplicate at each concentration.

IC50 [2]: 140 nM
EC50 for PDE4B inhibition relative to apremilast [4]: ten-fold lower EC50
Compound: O=C(c1cc2cccnc2n1-c1ccc(Cl)c(Cl)c1)N1CC(F)(F)C1 [Compound 8, (1-(3,4-dichlorophenyl)-1H-pyrrolo[2,3-b]pyridin-2-yl)(3,3-difluoroazetidin-1-yl)methanone]
Cocaine-mediated seeking and taking behavior (active nose-pokes, cocaine infusions) [1]: significantly decreased
Cocaine-induced hyperlocomotion ([3]; 5 or 10 mg/kg i.p. 30 min before cocaine 20 mg/kg i.p.): inhibited the cocaine induce hyperlocomotion
Locomotor activity of compound alone [3]: without any increase alone
Locomotor activity of compound alone ([3]; listed as compound 8): without any increase by itself
